Columns and labels:
Format in all cases: toxicity, cell-based
[1] = system: HEK-293T; assay: Incucyte cell viability with HEK293T; conditions: human, 10 µM, compound concentration 10 uM
[2] = system: Fibroblast; assay: Incucyte cell viability with human fibroblast; conditions: 10 µM, compound concentration 10 uM
[3] = system: U2OS; assay: Incucyte cell viability with U2OS; conditions: human, 10 µM, compound concentration 10 uM
[4] = 6 h, replicate number 1, timepoint 6 hours
[5] = 6 h, replicate number 2, timepoint 6 hours
[6] = 12 h, replicate number 1, timepoint 12 hours
[7] = 12 h, replicate number 2, timepoint 12 hours
[8] = 18 h, replicate number 1, timepoint 18 hours
[9] = 18 h, replicate number 2, timepoint 18 hours
[10] = 24 h, replicate number 1, timepoint 24 hours
[11] = 24 h, replicate number 2, timepoint 24 hours
[12] = 0 h, replicate number 2, timepoint 0 hours
[13] = 0 h, replicate number 1, timepoint 0 hours
Note: unitless GR value; below 1 slowed growth and below 0 cell loss.

Structure (SMILES)	Growth Rate [1, 4]	Growth Rate [1, 5]	Growth Rate [1, 6]	Growth Rate [1, 7]	Growth Rate [1, 8]	Growth Rate [1, 9]	Growth Rate [1, 10]	Growth Rate [1, 11]	Growth Rate [2, 4]	Growth Rate [2, 5]	Growth Rate [2, 6]	Growth Rate [2, 7]	Growth Rate [2, 8]	Growth Rate [2, 10]	Growth Rate [3, 4]	Growth Rate [3, 7]	Growth Rate [3, 9]	Growth Rate [3, 11]	Growth Rate [3, 8]	Growth Rate [1, 13]	further results
CCCCCCCCCCCCC/C=C/[C@@H](O)[C@@H](N)COP(=O)([O-])OCC[N+](C)(C)C [SPHINGOSYLPHOSPHORYLCHLOLINE]	-0.01	-0.35	0.28	-0.08	0.46	0.29	0.43	0.54	-0.36	-0.69	-0.22	-0.25	-0.17	0.17	0.97	0.91	0.8	0.88	–	–	Growth Rate [2, 9]: 0.1; Growth Rate [2, 11]: 0.07; Growth Rate [3, 10]: 0.9
COc1ccc2cc(S(=O)(=O)N[C@H](CC(=O)N[C@H](Cc3ccc(CN4[C@H](C)CCC[C@@H]4C)cc3)C(=O)N(C)C(C)C)c3ccc4c(c3)OCO4)ccc2c1.Cl	-0.08	–	0.01	0.35	0.02	0.41	0.01	0.42	-0.65	-0.35	-0.6	-0.1	-0.65	-0.57	0.84	0.61	0.57	0.53	0.67	–	Growth Rate [2, 12]: -0.08; Growth Rate [2, 9]: -0.15; Growth Rate [2, 11]: -0.02; Growth Rate [3, 12]: -0.35; Growth Rate [3, 6]: 0.63; Growth Rate [3, 10]: 0.69
N[C@@H](CCP(=O)(O)O)C(=O)O	–	0.79	–	0.88	–	–	–	0.78	-0.06	–	0.45	–	–	–	0.67	–	0.78	0.97	0.86	0.99	Growth Rate [3, 12]: -1; Growth Rate [3, 6]: 0.39
Cc1ccc(F)cc1C(=O)Nc1ccc(C(=O)N2Cc3cccn3Cc3ccccc32)c(Cl)c1 [LIXIVAPTAN]	–	–	–	–	–	–	–	–	0.63	0.2	–	0.59	–	0.45	0.32	–	0.89	0.94	–	0.91	Growth Rate [2, 13]: -0.13; Growth Rate [2, 9]: 0.75; Growth Rate [3, 13]: -0.09; Growth Rate [3, 5]: 0.89; Growth Rate [3, 10]: 0.9
Cc1cnc(-c2cc(N3CCN(C(=O)CCS(C)(=O)=O)CC3)ncc2Cl)c(C)c1	–	–	–	–	–	–	–	–	0.66	0.05	0.76	0.17	0.94	0.94	–	–	0.92	–	–	0.65	Growth Rate [1, 12]: 0.96; Growth Rate [2, 9]: 0.71; Growth Rate [3, 5]: 0.63
CN(C(=O)c1ccccc1)c1cc(N(C)c2ccc3c(c2)CCc2ccc(C(=O)NCCN4CCOCC4)cc2C3=O)ccc1F [FM-743]	-0.43	0	-0.34	-0.27	-0.33	-0.15	-0.25	-0.11	-0.57	-0.35	-0.68	-0.23	-0.66	-0.58	–	0.72	0.66	0.53	0.81	–	Growth Rate [2, 13]: 0.51; Growth Rate [2, 12]: 0.69; Growth Rate [2, 9]: -0.08; Growth Rate [2, 11]: -0.28; Growth Rate [3, 13]: 0.89; Growth Rate [3, 12]: 0.49; Growth Rate [3, 5]: 0.79; Growth Rate [3, 10]: 0.74
CCCCC[C@H](O)/C=C/[C@H]1CCC(=O)[C@@H]1CCCCCCC(=O)O	0.64	0.48	0.56	0.7	0.7	0.73	0.77	0.67	–	–	–	–	–	0.96	0.51	–	–	–	0.5	0.81	Growth Rate [1, 12]: -0.24; Growth Rate [2, 13]: -0.34; Growth Rate [2, 12]: -0.08; Growth Rate [3, 13]: 0.47; Growth Rate [3, 6]: 0.66; Growth Rate [3, 10]: 0.96
COc1cc2c(Oc3ccc(NC(=O)C4(C(=O)Nc5ccc(F)cc5)CC4)cc3F)ccnc2cc1OCCCN1CCOCC1 [FORETINIB]	-0.97	-0.98	-0.79	-0.89	-0.65	-0.82	-0.54	-0.7	-0.99	-1	-0.98	-0.95	-0.93	-0.88	0.16	-0.03	0.01	–	-0.03	–	Growth Rate [2, 9]: -0.9; Growth Rate [2, 11]: -0.91; Growth Rate [3, 5]: -0.08; Growth Rate [3, 6]: -0.1; Growth Rate [3, 10]: 0
CS(=O)(=O)c1ccc(C(=O)Nc2ccc(Cl)c(-c3ccccn3)c2)c(Cl)c1 [VISMODEGIB]	0.99	0.75	0.8	0.84	0.81	0.92	0.83	–	0.27	0.96	0.7	0.84	0.67	0.29	0.94	0.78	0.84	0.86	–	1	Growth Rate [1, 12]: 0.86; Growth Rate [2, 9]: 0.59; Growth Rate [2, 11]: 0.73; Growth Rate [3, 12]: -1; Growth Rate [3, 5]: 0.8
C=CCN1C[C@H](C(=O)N(CCCN(C)C)C(=O)NCC)C[C@@H]2c3cccc4[nH]cc(c34)C[C@H]21 [CABERGOLINE]	0.78	0.46	0.93	–	–	–	–	–	0.44	1	0.91	–	–	–	–	–	–	–	–	–	Growth Rate [2, 13]: -0.05; Growth Rate [2, 12]: 0.7; Growth Rate [3, 12]: -1
Cc1cnc(CNCC2(F)CCN(C(=O)c3ccc(F)c(Cl)c3)CC2)nc1	–	–	–	–	1	–	0.91	–	0.38	–	0.81	0.62	0.86	0.5	0.35	0.96	0.78	0.94	0.81	0.4	Growth Rate [1, 12]: 0.21; Growth Rate [2, 13]: 0.31; Growth Rate [2, 12]: 0.71; Growth Rate [3, 13]: -0.59; Growth Rate [3, 12]: 0.21; Growth Rate [3, 5]: 0.86; Growth Rate [3, 6]: 0.56; Growth Rate [3, 10]: 0.79
COC(=O)[C@H]1[C@H]2C[C@H]3c4[nH]c5ccccc5c4CCN3C[C@H]2CC[C@@H]1O.Cl [RAUWOLSCINE HYDROCHLORIDE]	0.76	–	0.95	–	–	–	–	–	0.83	–	0.59	–	–	–	0.53	0.89	0.88	0.98	0.79	0.51	Growth Rate [1, 12]: 0.67; Growth Rate [2, 12]: -0.08; Growth Rate [3, 13]: -0.57; Growth Rate [3, 6]: 0.61
Fc1cccc(/C=N/N=C/c2cccc(F)c2)c1	0.72	–	0.77	–	0.89	–	0.96	–	-0.08	–	0.7	–	–	0.91	–	0.84	–	–	–	–	Growth Rate [1, 12]: 0.2; Growth Rate [3, 12]: 0.84; Growth Rate [3, 5]: 0.83
Cc1cc(C)cc([C@@H]2c3cc(C)ccc3NC(=O)CN2C(=O)c2ccc(Br)s2)c1	0.88	–	0.65	0.79	0.61	0.69	0.46	0.7	–	–	–	–	–	1	–	–	0.81	0.89	0.98	0.35	Growth Rate [1, 12]: 0.57; Growth Rate [2, 13]: 0.17; Growth Rate [2, 12]: 0.74

Reference: ChEMBL document CHEMBL5058564, “EUbOPEN Chemogenomics Library 2 (Incucyte)” (2022)
